Where two headings read alike, the source gives them in different places. Each block holds one molecule with its values, some of them ahead of it.
What was measured:
Format in all cases: cell-based
M4 muscarinic receptor = target: T1, M4 muscarinic receptor (Homo sapiens, UniProt P08173); experiment: Receptor Selection and Amplification (R-SAT) assay, cloned M4 receptor; details: for Emax: read-out: m4 % Efficacy
T1 construct: expressed in transfected cells
T1 sequence (P08173 1-479): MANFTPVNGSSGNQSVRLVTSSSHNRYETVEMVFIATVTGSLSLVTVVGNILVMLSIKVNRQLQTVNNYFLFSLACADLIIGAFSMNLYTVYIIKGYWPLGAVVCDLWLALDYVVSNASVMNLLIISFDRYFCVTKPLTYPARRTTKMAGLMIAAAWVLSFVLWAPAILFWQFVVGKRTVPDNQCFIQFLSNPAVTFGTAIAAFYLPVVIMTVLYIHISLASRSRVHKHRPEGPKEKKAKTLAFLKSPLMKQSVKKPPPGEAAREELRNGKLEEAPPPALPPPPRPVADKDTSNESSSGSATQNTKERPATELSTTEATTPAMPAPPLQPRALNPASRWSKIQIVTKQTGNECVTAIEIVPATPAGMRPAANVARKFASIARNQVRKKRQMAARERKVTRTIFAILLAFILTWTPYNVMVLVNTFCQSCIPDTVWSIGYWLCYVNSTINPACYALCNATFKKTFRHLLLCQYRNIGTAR
Text: (§1) The EC50 for an agonist is intended to denote the concentration of a compound needed to achieve 50% of a maximal response seen in an in vitro assay such as R-SAT. For inverse agonists, EC50 is intended to denote the concentration of a compound needed to achieve 50% inhibition of an R-SAT response from basal, no compound, levels.
(§2) A particularly convenient functional assay system is the receptor selection and amplification assay (R-SAT assay) in U.S. Pat. No. 5,707,798, which describes a method of screening for bioactive compounds by utilizing the ability of cells transfected with receptor DNA, e.g., coding for the different muscarinic subtypes, to amplify in the presence of a ligand of the receptor. Cell amplification is detected as increased levels of a marker also expressed by the cells.
(§3) Receptor Selection and Amplification (R-SAT) assays were carried out using the cloned M1-M5 receptors essentially as described in: Brauner-Osborne H, Brann M R. Pharmacology of muscarinic acetylcholine receptor subtypes (m1-m5): high throughput assays in mammalian cells. Eur J Pharmacol Jan. 4, 1996;295(1):93-102, and Spalding T A, Trotter C, Skjaerbaek N, Messier T L, Currier E A, Burstein E S, Li D, Hacksell U, Brann M R. Discovery of an ectopic activation site on the M(1) muscarinic receptor. Mol Pharmacol. 2002 June;61(6):1297-302.

M1 muscarinic receptor = target: T2, M1 muscarinic receptor (Homo sapiens, UniProt P11229); experiment: Receptor Selection and Amplification (R-SAT) assay, cloned M1 receptor; design: M1 Eff: scale not given here; details: for Emax: read-out: m1 % Efficacy
T2 construct: expressed in transfected cells
T2 sequence (P11229 1-460): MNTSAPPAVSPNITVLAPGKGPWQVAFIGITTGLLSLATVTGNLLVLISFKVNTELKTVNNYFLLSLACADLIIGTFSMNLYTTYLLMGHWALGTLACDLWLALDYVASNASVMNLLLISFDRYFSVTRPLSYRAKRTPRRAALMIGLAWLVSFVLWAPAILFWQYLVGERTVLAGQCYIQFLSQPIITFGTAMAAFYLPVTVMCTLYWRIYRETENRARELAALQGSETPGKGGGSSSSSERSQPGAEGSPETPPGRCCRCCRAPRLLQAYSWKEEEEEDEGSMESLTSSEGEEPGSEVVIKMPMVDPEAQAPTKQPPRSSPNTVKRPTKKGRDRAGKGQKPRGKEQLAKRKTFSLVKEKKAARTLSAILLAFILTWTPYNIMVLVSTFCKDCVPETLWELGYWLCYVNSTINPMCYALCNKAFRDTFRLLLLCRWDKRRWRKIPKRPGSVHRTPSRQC
Text: as §1, §2, §3

M2 muscarinic receptor = target: T3, M2 muscarinic receptor (Homo sapiens, UniProt P08172); experiment: Receptor Selection and Amplification (R-SAT) assay, cloned M2 receptor; design: M2 Eff: scale not given here; details: for Emax: read-out: m2 % Efficacy
T3 construct: expressed in transfected cells
T3 sequence (P08172 1-466): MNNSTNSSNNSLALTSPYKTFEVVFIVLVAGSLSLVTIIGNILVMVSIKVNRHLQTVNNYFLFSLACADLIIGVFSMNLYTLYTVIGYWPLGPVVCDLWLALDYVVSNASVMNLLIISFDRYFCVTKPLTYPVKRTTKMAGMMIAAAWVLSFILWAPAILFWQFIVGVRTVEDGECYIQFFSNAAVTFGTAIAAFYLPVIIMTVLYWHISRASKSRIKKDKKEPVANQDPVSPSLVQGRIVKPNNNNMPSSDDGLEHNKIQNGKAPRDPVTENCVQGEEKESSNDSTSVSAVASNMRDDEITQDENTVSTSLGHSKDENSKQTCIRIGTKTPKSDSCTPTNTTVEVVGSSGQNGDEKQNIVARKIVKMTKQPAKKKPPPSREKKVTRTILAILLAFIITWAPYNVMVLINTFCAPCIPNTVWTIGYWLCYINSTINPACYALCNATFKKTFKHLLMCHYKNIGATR
Text: as §1, §2, §3

[1] = R-SAT, cloned m4 receptor, read-out: m4 pEC50 (converted)
[2] = R-SAT, cloned m1 receptor, read-out: m1 pEC50 (converted)
[3] = M2 pEC50, R-SAT, second table (COMPOUND ID series)
[4] = R-SAT, second table (COMPOUND ID series)
[5] = M1 pEC50, R-SAT, second table (COMPOUND ID series)
[6] = R-SAT, second table (COMPOUND ID series), read-out: M2 pEC50 (converted)
[7] = R-SAT, second table (COMPOUND ID series), read-out: M1 pEC50 (converted)
[8] = m2 pEC50, R-SAT, cloned m2 receptor
[9] = m1 pEC50, R-SAT, cloned m1 receptor
[10] = R-SAT, cloned m2 receptor, read-out: m2 pEC50 (converted)

Structure (SMILES): O=C1COc2cc(F)c(F)cc2N1CCCN1[C@@H]2CC[C@H]1C[C@@H](OCC1CC1)C2 [Compound 00262569, 4-[3-(3a-Cyclopropylmethoxy-8-azabicyclo[3.2.1]oct-8-yl)propyl]-6.7-difluoro-4H-benzo[1.4]oxazin-3-one]
EC50 (M2 muscarinic receptor; [3]): 50.1 nM | M2 Eff (M2 muscarinic receptor; [4]): 42 | EC50 (M1 muscarinic receptor; [5]): 6.31 nM | M1 Eff (M1 muscarinic receptor; [4]): 97

Structure (SMILES): COCCC1CC2CCC(C1)N2CC(C)CN1C(=O)COc2ccccc21 [Compound 00263025, (R)-4-{3-[3a-(2-Methoxyethyl)-8-azabicyclo[3.2.1]oct-8-yl]-2-methylpropyl}-4H-benzo[1.4]oxazin-3-one]
EC50 (M2 muscarinic receptor; [3]): 158 nM | M2 Eff (M2 muscarinic receptor; [4]): 123 | EC50 (M1 muscarinic receptor; [5]): 3.16 nM | M1 Eff (M1 muscarinic receptor; [4]): 116

Structure (SMILES): CCCCCC1CC2CCC(C1)N2C[C@@H](C)CN1C(=O)COc2ccccc21 (stereo partly drawn) [Compound 108LM39-36, (R)-4-[2-Methyl-3-(3-pentyl-8-azabicyclo[3.2.1]oct-8-yl)propyl]-4H-benzo[1,4]oxazin-3-one]
EC50 (M2 muscarinic receptor; [8]): 7.94 nM | Emax (M2 muscarinic receptor): 37% | EC50 (M4 muscarinic receptor): 20 nM | Emax (M4 muscarinic receptor): 71% | EC50 (M1 muscarinic receptor; [9]): 1.58 nM | Emax (M1 muscarinic receptor): 106%

Structure (SMILES): CCCCCC1CC2CCC(C1)N2C[C@@H](C)CN1C(=O)CCc2ccccc21 (stereo partly drawn) [Compound 107LH55, (R)-1-[2-Methyl-3-(3-pentyl-8-azabicyclo[3.2.1]oct-8-yl)propyl]-3,4-dihydro-1H-quinolin-2-one]
EC50 (M2 muscarinic receptor; [8]): 31.6 nM | Emax (M2 muscarinic receptor): 28% | EC50 (M4 muscarinic receptor): 50.1 nM | Emax (M4 muscarinic receptor): 54% | EC50 (M1 muscarinic receptor; [9]): 1.26 nM | Emax (M1 muscarinic receptor): 103%

Structure (SMILES): CCCC[C@]1(O)C[C@H]2CC[C@@H](C1)N2C[C@@H](C)CN1C(=O)COc2ccccc21 [Compound 00261478, (R)-4-[3-(3β-Butyl-3a-hydroxy-8-aza-bicyclo[3.2.1]oct-8-yl)-2-methyl-propyl]-1H-benzo[1,4]oxazin-3-one]
M2 Eff (M2 muscarinic receptor; [4]): 40 | EC50 (M2 muscarinic receptor; [6]): 1260 nM | M1 Eff (M1 muscarinic receptor; [4]): 105 | EC50 (M1 muscarinic receptor; [7]): 1580 nM

Structure (SMILES): CCCCC1CCN(CCCN2CCCc3ccccc32)CC1 [Compound 55-LH-12-2, 1-[3-(4-Butyl-piperidin-1-yl)-propyl]-1,2,3,4-tetrahydro-quinoline]
Emax (M2 muscarinic receptor; R-SAT, cloned m2 receptor): 35% | EC50 (M2 muscarinic receptor; [10]): 631 nM | Emax (M4 muscarinic receptor; R-SAT, cloned m4 receptor): 68% | EC50 (M4 muscarinic receptor; [1]): 1000 nM | Emax (M1 muscarinic receptor; R-SAT, cloned m1 receptor): 72% | EC50 (M1 muscarinic receptor; [2]): 50.1 nM

Structure (SMILES): CCOCCC1CC2CCC(C1)N2CC(C)CN1C(=O)COc2ccccc21 (single isomer, unassigned) [Compound 00262998]
EC50 (M2 muscarinic receptor; [3]): 398 nM | M2 Eff (M2 muscarinic receptor; [4]): 56 | EC50 (M1 muscarinic receptor; [5]): 7.94 nM | M1 Eff (M1 muscarinic receptor; [4]): 102

Structure (SMILES): CCCCC1CCN(CCCN2CCOc3ccc(C)cc32)CC1 [Compound 64LHY91-6, 4-[3-(4-Butyl-piperidin-1-yl)-propyl]-6-methyl-3,4-dihydro-2H-benzo[1,4]oxazine]
Emax (M2 muscarinic receptor; R-SAT, cloned m2 receptor): 31% | EC50 (M2 muscarinic receptor; [10]): 126 nM | Emax (M4 muscarinic receptor; R-SAT, cloned m4 receptor): 52% | EC50 (M4 muscarinic receptor; [1]): 251 nM | Emax (M1 muscarinic receptor; R-SAT, cloned m1 receptor): 86% | EC50 (M1 muscarinic receptor; [2]): 63.1 nM

Structure (SMILES): C[C@@H](CN1C(=O)COc2ccccc21)CN1[C@@H]2CC[C@H]1CC(=NOCC1CC1)C2 (mixture of isomers) [Compound 00261537, 4-[3-(3-Cyclopropylmethoxyimino-8-aza-bicyclo[3.2.1]oct-8-yl)-2(R)-methyl-propyl]-4H-benzo[1,4]oxazin-3-one]
M2 Eff (M2 muscarinic receptor; [4]): 58 | EC50 (M2 muscarinic receptor; [6]): 794 nM | M1 Eff (M1 muscarinic receptor; [4]): 126 | EC50 (M1 muscarinic receptor; [7]): 126 nM

The next lines start with the values.

Emax (M4 muscarinic receptor; R-SAT, cloned m4 receptor): 28% | EC50 (M4 muscarinic receptor; [1]): > 3160 nM | Emax (M1 muscarinic receptor; R-SAT, cloned m1 receptor): 54% | EC50 (M1 muscarinic receptor; [2]): 316 nM
Structure (SMILES): CCCCC1CCN(CCCN2CCCc3cc(C)ccc32)CC1 [Compound 55LH44-A, 1-[3-(4-Butyl-piperidin-1-yl)-propyl]-6-methyl-1,2,3,4-tetrahydro-quinoline]

M2 Eff (M2 muscarinic receptor; [4]): 57 | EC50 (M2 muscarinic receptor; [6]): 1000 nM | M1 Eff (M1 muscarinic receptor; [4]): 94 | EC50 (M1 muscarinic receptor; [7]): 50.1 nM
Structure (SMILES): O=C1CCc2cc(F)c(F)cc2N1CCCN1CCC(OCC2CC2)CC1 [Compound 00262272, 1-[3-(4-Cyclopropylmethoxypiperidin-1-yl)propyl]-6,7-difluoro-3,4-dihydro-1H-quinolin-2-one]

Emax (M4 muscarinic receptor; R-SAT, cloned m4 receptor): 37% | EC50 (M4 muscarinic receptor; [1]): > 3160 nM | Emax (M1 muscarinic receptor; R-SAT, cloned m1 receptor): 55% | EC50 (M1 muscarinic receptor; [2]): 200 nM
Structure (SMILES): CCCCC1CCN(CCCN2c3cc(F)ccc3CCC2C)CC1 (stereo not drawn) [Compound 77LH02-1917, 1-[3-(4-Butyl-piperidin-1-yl)-propyl]-7-fluoro-2-methyl-1,2,3,4-tetrahydro-quinoline]

M2 Eff (M2 muscarinic receptor; [4]): 28 | EC50 (M2 muscarinic receptor; [6]): 2510 nM | M1 Eff (M1 muscarinic receptor; [4]): 122 | EC50 (M1 muscarinic receptor; [7]): 158 nM
Structure (SMILES): CC(CN1CCC(OCC2CCC2)CC1)CN1C(=O)COc2ccccc21 (racemic) [Compound 00262197, 4-[(R,S)-3-(4-Cyclobutylmethoxypiperidin-1-yl)-2-methylpropyl]-4H-benzo[1.4]oxazin-3-one]

Emax (M2 muscarinic receptor; R-SAT, cloned m2 receptor): 67% | EC50 (M2 muscarinic receptor; [10]): > 3160 nM | Emax (M4 muscarinic receptor; R-SAT, cloned m4 receptor): 64% | EC50 (M4 muscarinic receptor; [1]): > 3160 nM | Emax (M1 muscarinic receptor; R-SAT, cloned m1 receptor): 45% | EC50 (M1 muscarinic receptor; [2]): 200 nM
Structure (SMILES): CCCCC1CCN(CCCN2c3ccccc3CCC2C)CC1 (stereo not drawn) [Compound 55-LH-28-8, 1-[3-(4-Butyl-piperidin-1-yl)-propyl]-2-methyl-1,2,3,4-tetrahydro-quinoline]

M2 Eff (M2 muscarinic receptor; [4]): 61 | EC50 (M2 muscarinic receptor; [6]): 631 nM | M1 Eff (M1 muscarinic receptor; [4]): 95 | EC50 (M1 muscarinic receptor; [7]): 50.1 nM
Structure (SMILES): O=C1COc2cc(F)c(F)cc2N1CCCN1CCC(OCC2CC2)CC1 [Compound 00262461, 4-[3-(4-Cyclopropylmethoxypiperidin-1-yl)propyl]-6,7-difluoro-4H-benzo[1.4]oxazin-3-one]

M2 Eff (M2 muscarinic receptor; [4]): 71 | EC50 (M2 muscarinic receptor; [6]): 2000 nM | M1 Eff (M1 muscarinic receptor; [4]): 94 | EC50 (M1 muscarinic receptor; [7]): 79.4 nM
Structure (SMILES): COC(CN1CCC(OCC2CC2)CC1)CN1C(=O)COc2cc(F)ccc21 (racemic) [Compound 00262784, (R,S)-4-[3-(4-Cyclopropylmethoxypiperidin-1-yl)-2-methoxypropyl]-7-fluoro-4H-benzo[1.4]oxazin-3-one]

M2 Eff (M2 muscarinic receptor; [4]): 40 | EC50 (M2 muscarinic receptor; [6]): 1260 nM | M1 Eff (M1 muscarinic receptor; [4]): 84 | EC50 (M1 muscarinic receptor; [7]): 79.4 nM
Structure (SMILES): O=C1COc2ccccc2N1CCCN1CCC(OCC2CC2)CC1 [Compound 00262922, 4-[3-(4-Cyclopropylmethoxypiperidin-1-yl)propyl]-4H-benzo[1.4]oxazin-3-one]
